Assay results: paper PMC5675407, “Sugar analog synthesis by in vitro biocatalytic cascade: A comparison of alternative enzyme complements for dihydroxyacetone phosphate production as a precursor to rare chiral sugar synthesis” (PLoS ONE, 2017)

Biological target: T1, FruASc (Staphylococcus carnosus, UniProt Q07159)
T1 construct: gene fda; recombinant from pETScFruA, E. coli
Assay: LC-MS of aldol product in enzyme cascade
Format: biochemical
Settings: DHAP made in situ; acetaldehyde or glyceraldehyde-3-phosphate 10 mM, pH 7.9, 22 °C

T1 sequence (Q07159 2-296): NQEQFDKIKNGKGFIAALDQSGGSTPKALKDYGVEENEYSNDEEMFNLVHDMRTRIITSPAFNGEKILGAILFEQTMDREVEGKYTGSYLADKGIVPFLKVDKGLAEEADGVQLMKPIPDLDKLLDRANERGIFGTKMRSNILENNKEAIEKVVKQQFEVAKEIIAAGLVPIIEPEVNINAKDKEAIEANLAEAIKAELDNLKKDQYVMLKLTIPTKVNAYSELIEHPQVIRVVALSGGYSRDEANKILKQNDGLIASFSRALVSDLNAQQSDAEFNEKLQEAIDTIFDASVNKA

O=C(CO)COP(=O)(O)O [DHAP]
LC-MS of aldol product in enzyme cascade: as DHAP was consumed by the aldolase reaction, greater conversion to DHAP occurred
